What all share (format): cell-based, human
In test [1] the test system is PBMC. Nature of the test: IFN-γ ELISpot on PBMC of CD patients after 3-day barley challenge. The following applies: after barley challenge. An excerpt:
(§1) Australian Caucasian HLA-DQ2.5^+ and/or HLA-DQ8^+ CD subjects were recruited by advertisement in the Coeliac Society of Victoria newsletter and all had biopsy-proven CD conforming to ESPGHAN criteria. Patients had been on strict gluten free diet for at least 4 weeks prior to commencing grain challenge. Patients underwent 3-day grain challenge with oats, barley, or combined wheat, barley, and rye muffins, and 6 days after commencement, blood was collected. Day 0 responses were not observed in the selection of patients tested, as described previously^8.
(§2) Oats challenge consisted of 100 g dry weight daily of one of three commercial brands of oats: one not tested for wheat contamination (Uncle Toby's; Oats #1), and two shown by R5 ELISA to contain less than 20 ppm wheat gluten (Tilquhilie Pudding; Oats #2 and Freedom Food; Oats #3). Barley challenge consisted of pearl barley (Ward McKenzie) cooked into a risotto (150 g dry weight daily) and the wheat challenge consisted of four 50 g slices of wheat bread daily (Baker's Delight white loaf cut to toasting thickness). The combined wheat, barley, and rye challenge consisted of muffins baked with wheat flour (White Wings), barley flour (Four Leaf Milling), and rye flour (Four Leaf Milling; 22-25 g dry weight each daily). A symptom diary based on a […] Likert scale was completed by participants daily from baseline until day 6.
(§3) Two avenin peptide libraries were utilized for epitope screening. These were designed using avenin sequences from GenBank and a customized algorithm, as previously described^9. The initial library consisted of 199 screening-grade 20 mers including all possible 12 mers (Mimotopes). This library was screened with and without tTG pre-treatment. The second library consisted of additional avenin sequences that were synthesized with glutamate substitution at sites predicted to be deamidated by published algorithms^10, 11 removing the requirement for tTG treatment. This library contained 369 screening-grade 20 mers, including all possible 12 mers (Pepscan). The second round avenin library contained wild-type and deamidated versions of the most immunogenic sequences (25 high quality 16 mers from Mimotopes). High quality peptides containing previously described immunogenic sequences from wheat, barley, and rye were used to test for cross-reactivity^8 (Pepscan). High quality hordein and avenin peptides for TCC testing and biochemical studies were ordered from Pepscan, Mimotopes, or GL Biochem.
(§4) Peripheral blood mononuclear cells (PBMC) were isolated from heparinized whole blood using Ficoll-Paque™ Plus density-gradient centrifugation (GE Healthcare). IFN-γ ELISpot (Mabtech) was set up as previously described^8.

For test [2], the system named is PBMC. Nature of the test: IFN-γ ELISpot on PBMC of CD patients on day 6 after 3-day oats challenge. The following applies: after 3-day oats challenge.
Source text: as §1, §2, §3, §4

For another test, the system named is Patient 2 TCC-01. Nature of the test: IFN-γ ELISpot with T cell clone. A digest of the protocol:
(§5)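 T cell clones from coeliac patients were derived by single-cell sorting of CFSE-labeled PBMC that proliferated after 7 days with antigen in IMDM plus 5% pooled human serum. Clones were expanded with IL-2 and IL-4, and IFN-γ ELISpot tested their specificity using irradiated HLA-matched PBMC as antigen-presenting cells.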

Another test deals with Patient 14 TCC-01. Nature of the test: IFN-γ ELISpot with T cell clone. A digest of the protocol:
as §5

In the next test the test system is Patient 6 TCC-01. Nature of the test: IFN-γ ELISpot with T cell clone. The essentials: as §5
A further test concerns Patient 2 TCC-02. Kind of test: IFN-γ ELISpot with T cell clone. Particulars: for IFN-γ ELISpot response (SFU) / significant SFU as a percentage of maximal peptide SFU: TCC Patient 2 TCC-02, peptide 25 μg/mL. A digest of the protocol:
as §5

A further test has as its system Patient 2 TCC-03. Kind of test: IFN-γ ELISpot with T cell clone. Particulars: TCC Patient 2 TCC-03, peptide 25 μg/mL. A digest of the protocol:
as §5

In a further test the test system is Patient 8 TCC-01. Kind of test: IFN-γ ELISpot with T cell clone. The following applies: TCC Patient 8 TCC-01, peptide 25 μg/mL. A digest of the protocol:
as §5

The next test relates to Patient 10 TCC-01. Nature of the test: IFN-γ ELISpot with T cell clone. The following applies: TCC Patient 10 TCC-01, peptide 50 μg/mL. The essentials: as §5
The subject of the next test is Patient 9 TCC-02. Nature of the test: IFN-γ ELISpot with T cell clone. The following applies: TCC Patient 9 TCC-02, peptide 50 μg/mL. A digest of the protocol:
as §5

The test system of a further test is Patient 9 TCC-01. Kind of test: IFN-γ ELISpot with T cell clone. The following applies: TCC Patient 9 TCC-01, peptide 50 μg/mL. A digest of the protocol: as §5
[3] abbreviates: TCC Patient 2 TCC-01, peptide 25 μg/mL.
Setting [4] is: TCC Patient 6 TCC-01, peptide 25 μg/mL.
[5] abbreviates: TCC Patient 2 TCC-01, peptide 50 μg/mL.
Setting [6] is: TCC Patient 14 TCC-01, peptide 50 μg/mL.
Where [7] appears, read: TCC Patient 6 TCC-01, peptide 50 μg/mL.

[ ]: non-standard residue; d: D form. pGlu = O=C1CC[C@@H](C(=O)O)N1

Consider five sequences from patent publication US20160238590A1, “COMPOSITIONS AND METHODS RELATED TO OAT SENSITIVITY” (IMMUSANT, INC., priority 2013, published 2016).

Regarding “SEQYQPYPEQEQPFVQ [deamidated avenin peptide containing DQ2.5-ave-1b]”, the “IFN-γ ELISpot response (raw SFU)” value with PBMC [1] (Patient 1, peptide 50 μg/ml) was found to be 77 SFU; with PBMC [1] (Patient 2, peptide 50 μg/ml), 225 SFU; in the test with PBMC [1] (Patient 3, peptide 50 μg/ml), 36 SFU; in the test on PBMC [2] (patient P1, peptide 1 μg/ml), 24 SFU; with PBMC [2] (patient P1, peptide 10 μg/ml), 18 SFU; with PBMC [2] (patient P1, peptide 100 μg/ml), 10 SFU. In addition, the “IFN-γ ELISpot response (raw SFU)” value is on record as 5 SFU in the test on PBMC [2] (patient P2, peptide 1 μg/ml); 9 SFU in the test with PBMC [2] (patient P2, peptide 10 μg/ml); 24 SFU in the test on PBMC [2] (patient P2, peptide 100 μg/ml); 4 SFU in the test on PBMC [2] (patient P3, peptide 1 μg/ml); 7 SFU in the test on PBMC [2] (patient P3, peptide 10 μg/ml); 2 SFU in the test on PBMC [2] (patient P3, peptide 100 μg/ml). In addition, the “IFN-γ ELISpot response (raw SFU)” value was found to be 0 SFU with PBMC [2] (patient P11, peptide 1 μg/ml); 3 SFU in the test with PBMC [2] (patient P11, peptide 10 μg/ml); 0 SFU in the test with PBMC [2] (patient P11, peptide 100 μg/ml); 2 SFU with PBMC [2] (patient P12, peptide 1 μg/ml); 4 SFU with PBMC [2] (patient P12, peptide 10 μg/ml); 2 SFU with PBMC [2] (patient P12, peptide 100 μg/ml). For the same sequence, the “IFN-γ ELISpot response (raw SFU)” value amounted to 13 SFU in the test on PBMC [2] (patient P13, peptide 50 μg/ml); 295 SFU with Patient 2 TCC-01 (TCC Patient 2 TCC-01 (Table 5), mean no antigen 1.1); 10 SFU in the test on Patient 14 TCC-01 (TCC Patient 14 TCC-01 (Table 5), mean no antigen 11.3, high background, SFU >25 considered as positive responses); 12 SFU in the test with Patient 6 TCC-01 (TCC Patient 6 TCC-01 (Table 5), mean no antigen 2). For the same sequence, the “significant SFU as a percentage of maximal peptide SFU” value (from here on “significant SFU as a percentage”) is listed as “* (*: 20-40%)” in the test on PBMC [1] (Patient 1, peptide 50 μg/ml); “*** (***: >70%)” with PBMC [1] (Patient 2, peptide 50 μg/ml); “* (*: 20-40%)” with PBMC [1] (Patient 3, peptide 50 μg/ml); “*** (***: >70%)” in the test with PBMC [2] (patient P1, peptide 1 μg/ml); “** (**: 40-70%)” in the test on PBMC [2] (patient P1, peptide 10 μg/ml); “** (**: 40-70%)” in the test with PBMC [2] (patient P2, peptide 100 μg/ml). Besides, in the test on PBMC [2] (patient P13, peptide 50 μg/ml), the “significant SFU as a percentage” value is reported as “* (*: 20-40%)”.

On to QYQPYPEQEEPFVQQQ, for which the “IFN-γ ELISpot response (raw SFU)” value in the test on PBMC [2] (patient P1, peptide 1 μg/ml) is 8 SFU; in the test on PBMC [2] (patient P1, peptide 10 μg/ml), 15 SFU; with PBMC [2] (patient P1, peptide 100 μg/ml), 5 SFU; in the test on PBMC [2] (patient P2, peptide 1 μg/ml) it was 7 SFU; in the test with PBMC [2] (patient P2, peptide 10 μg/ml), 12 SFU; with PBMC [2] (patient P2, peptide 100 μg/ml), 20 SFU. Moreover, the “IFN-γ ELISpot response (raw SFU)” value in the test on PBMC [2] (patient P3, peptide 1 μg/ml) was found to be 20 SFU; with PBMC [2] (patient P3, peptide 10 μg/ml), 31 SFU; in the test on PBMC [2] (patient P3, peptide 100 μg/ml), 2 SFU; in the test with PBMC [2] (patient P11, peptide 1 μg/ml), 2 SFU; in the test with PBMC [2] (patient P11, peptide 10 μg/ml) it was 0 SFU; in the test on PBMC [2] (patient P11, peptide 100 μg/ml), 0 SFU. Besides, the “IFN-γ ELISpot response (raw SFU)” value was found to be 4 SFU in the test on PBMC [2] (patient P12, peptide 1 μg/ml); 3 SFU in the test on PBMC [2] (patient P12, peptide 10 μg/ml); 2 SFU in the test with PBMC [2] (patient P12, peptide 100 μg/ml); 9 SFU in the test with PBMC [2] (patient P13, peptide 50 μg/ml). For the same sequence, the “significant SFU as a percentage” value in the test with PBMC [2] (patient P1, peptide 10 μg/ml) is listed as “** (**: 40-70%)”; in the test on PBMC [2] (patient P2, peptide 10 μg/ml) it was “* (*: 20-40%)”; with PBMC [2] (patient P2, peptide 100 μg/ml) it was “* (*: 20-40%)”; in the test with PBMC [2] (patient P3, peptide 1 μg/ml) it was “* (*: 20-40%)”; with PBMC [2] (patient P3, peptide 10 μg/ml) it was “** (**: 40-70%)”; with Patient 2 TCC-02 it was “*** (***: >70%)”. For the same sequence, the “rank of TCC response among homologous peptides” value with Patient 2 TCC-02 (Patient 2 TCC-02 (FIG. 2)) is recorded as “greatest response”. The “IFN-γ ELISpot response (SFU)” value in the test with Patient 2 TCC-02 was found to be 284 SFU; in the test on Patient 2 TCC-03 it was 0 SFU; in the test on Patient 2 TCC-01 (setting [3]), 2 SFU; with Patient 8 TCC-01 it was 0 SFU; in the test with Patient 6 TCC-01 (setting [4]), 1 SFU.

Consider “QPFPQPEQPFPWQP ([pGlu]PFPQPEQPFPWQP-NH2; SMILES NC(=O)CC[C@H](NC(=O)[C@H](Cc1c[nH]c2ccccc12)NC(=O)[C@@H]1CCCN1C(=O)[C@H](Cc1ccccc1)NC(=O)[C@@H]1CCCN1C(=O)[C@H](CCC(N)=O)NC(=O)[C@H](CCC(=O)O)NC(=O)[C@@H]1CCCN1C(=O)[C@H](CCC(N)=O)NC(=O)[C@@H]1CCCN1C(=O)[C@H](Cc1ccccc1)NC(=O)[C@@H]1CCCN1C(=O)[C@@H]1CCC(=O)N1)C(=O)N1CCC[C@H]1C(N)=O) [wheat gliadin peptide containing DQ2.5-glia-ω1 and DQ2.5-glia-ω2, reference compound]”, for which the “IFN-γ ELISpot response (raw SFU)” value in the test on Patient 10 TCC-01 was 205 SFU; with Patient 9 TCC-02, 0 SFU; in the test with Patient 2 TCC-01 (setting [5]), 2 SFU; in the test on Patient 14 TCC-01 (setting [6]), 20 SFU; in the test with Patient 9 TCC-01 it was 1 SFU; in the test with Patient 6 TCC-01 (setting [7]), 1 SFU. Also, the “significant SFU as a percentage” value in the test with Patient 10 TCC-01 is given as “*** (***: >70%)”.

LQPFPQPELPYPQPQ [reference compound]: the “IFN-γ ELISpot response (raw SFU)” value in the test on Patient 10 TCC-01 is 39 SFU; in the test with Patient 9 TCC-02, 240 SFU; in the test with Patient 2 TCC-01 (setting [5]), 0 SFU; with Patient 14 TCC-01 (setting [6]), 22 SFU; in the test on Patient 9 TCC-01, 287 SFU; in the test on Patient 6 TCC-01 (setting [7]), 2 SFU. In addition, the “significant SFU as a percentage” value with Patient 9 TCC-02 and in the test with Patient 9 TCC-01 was “*** (***: >70%)” throughout.

Consider SEQYQPYPEQEQPFV [DQ2.5-ave-1b], for which the “IFN-γ ELISpot response (SFU)” value with Patient 2 TCC-02 is given as 102 SFU; with Patient 2 TCC-03, 1 SFU; in the test on Patient 2 TCC-01 (setting [3]), 240 SFU; with Patient 8 TCC-01 it was 50 SFU; with Patient 6 TCC-01 (setting [4]), 30 SFU. Also, the “significant SFU as a percentage” value with Patient 2 TCC-02 is on record as “* (*: 20-40%)”; with Patient 2 TCC-01 (setting [3]), “*** (***: >70%)”; with Patient 8 TCC-01 it was “* (*: 20-40%)”; in the test with Patient 6 TCC-01 (setting [4]) it was “* (*: 20-40%)”.
